Results as given in patent EP3731817B1, “PHARMACEUTICAL COMPOSITION OF LENALIDOMIDE PHARMACEUTICALLY ACCEPTABLE ACID ADDITION SALT” (KRKA, d.d., Novo mesto, priority 2017, dated 2019).
Where a name gives a salt, the structure may show the parent alone.

How the values were obtained:
[1] = cited from earlier work
[2] = Stability testing: physical form (disproportionation) monitored by X-ray powder diffraction after storage in vials; assay type: physicochemical; details: physical form found by XRPD after storage in vials
Protocol: The binary mixtures and pharmaceutical compositions were stored in vials at 40°C/75%RH for 1 month or at 50° C 75% RH for 14 days. Disproportionation effect was monitored by X-ray powder diffraction pattern.
X-ray powder diffraction patterns were obtained by a PANalytical PW3040/60 X'Pert PRO diffractometer using CuKα radiation of 1,541874.
Lenalidomide hydrochloride and the all the excipients with respect to the composition were weighed into the glass vial. Gelatine capsule were added into the vials. The vials were then closed with the stopper and gently mixed to form a homogenous mixture. The vials were subjected to the stress conditions.
Lenalidomide hydrochloride in the form of monohydrate form VII and the all the excipients with respect to the composition were weighed into the glass vial. Gelatine capsule were added into the vials. Vials were then closed with the stopper and gently mixed to form a homogenous mixture. The vials were subjected to the stress conditions.
The capsules were stored in vials at 40°C/75%RH for 1 month. Physical stability of the samples was monitored by X-ray powder diffraction pattern. As evident from the results, the physical form remains the same, a disproportionation effect was not observed.

Row | Compound | dissociation constant pKa1 ([1]; primary amine group) | pKa2 ([1]; secondary amine group) | Stability testing 1 month at 40°C/75%RH [2]
1 | Nc1cccc2c1CN(C1CCC(=O)NC1=O)C2=O (stereo not drawn) [lenalidomide, (3-(4' aminoisoindoline-1'-one)-1-piperidine-2,6-dione)] | 2.31 | 11.6 | –
2 | Nc1cccc2c1CN(C1CCC(=O)NC1=O)C2=O (stereo not drawn) [API, Lenalidomid HCl·H2O] | – | – | HCl salt
